Laboratory results from patent US7767674B2, “Kinase inhibitors” (Eli Lilly and Company, priority 2004, dated 2010).

Columns and labels:
p38 kinase enzyme = p38 kinase enzyme (Homo sapiens, UniProt Q16539); assay: Inhibition of p38 kinase (33P-ATP, EGF peptide 661-681 substrate); assay type: biochemical; details: 33P-ATP assay, 40 min at 30° C.
Method: The kinase buffer solution is prepared by combining 2.5 mL 1M Tris-HCl (pH 7.5), 0.1 mL 1M dithiothreitol, 1.0 mL 1M magnesium chloride, and 300 μL 1% Triton X-100 and diluting to 100 mL with water. 84 mL of this kinase buffer solution is combined with 16 mL DMSO to prepare the 16% DMSO solution.
The 200 μM ATP solution is prepared by adding 102.6 μL 10 mM aqueous ATP, 25 μL ^33P-ATP, and 163.5 μL of 4 mM aqueous Epidermal Growth Factor Peptide 661-681 (Biomol, Catalog #P-121) in 5 mL kinase buffer solution.
The p38 kinase enzyme solution is prepared by dissolving 9.5 μL concentrated enzyme solution (250 ng p38 enzyme/μL kinase buffer solution) in 1536 μL kinase buffer solution.
An 80 μM solution of each test compound and control compound are prepared by dissolving 2 μL of a 10 mM stock solution of the respective compounds in dimethylsulfoxide in 248 μL of the 16% DMSO solution in a Costar 96-well microtiter plate. The plate is placed onto the Tecan Genesis automated liquid handler for 1:3 serial dilutions.
10 μL of serially diluted compound is placed with a Beckman Multimek 96-well automated liquid handler to the assay plate. 20 μL of 200 μM ATP solution is added with a Titertek Multidrop 8-channel liquid handler. 10 μL of p38 kinase enzyme solution is transferred to the assay plate using the Multimek. The mixture is allowed to react for 40 min at 30° C. and then the reaction is stopped by adding 60 μL of freshly prepared 5% glacial AcOH with Multidrop. 80 μL of this solution is transferred to an “MAPH” plate using the Multimek. The plates are allowed to set for 30 min at room temperature and then washed/aspirated on the Titertek MAP extractor with freshly prepared 0.5% glacial AcOH (1×300 μL, 2×200 μL). […] The plates are allowed to sit for 30 min and counted on a PE/Wallac Microbeta Trilux scintillation counter for ^33P-isotope.
All exemplified compounds are initially tested at 10 concentrations (20 μM-1 nM using 1:3 serial dilutions). […] IC50 values are calculated (IDBS ActivityBase software) for each compound using non-linear regression. […]

[1] = test system: TNF-α in synovial lavage fluid; assay: Effect on intra-articular LPS induced TNF-α, rat ankle synovial lavage fluid; assay type: in vivo; details: oral, female Lewis rats, intra-articular LPS 10 μg one hour after compound, lavage after two hours, read-out: ED50, inhibition of TNF-α synthesis in synovial lavage fluid
Method: Intra-articular injection of LPS into rat ankles induces the synthesis of TNF-α, which can be measured in synovial lavage fluid. High levels of TNF-α are detectable within 2 hours. Since the joint is the site where arthritis develops, this model can rapidly determine whether an orally administered compound has an effect on an inflammatory response in the synovium.
Six female Lewis rats (150-200 g) are place in each treatment group. The animals are given vehicle (1% NaCarboxymethylcellulose-0.25% Tween 80) or test compound (1 mg/kg, 3 mg/kg, 10 mg/kg, and 30 mg/kg) orally. One hour later, 10 μl LPS (10 μg) is administered intra-articularly into the right ankle of each rat, while the left ankle receives 10 μL of saline. After two hours, each ankle is lavaged with 100 μL of saline. The lavage is collected and stored at −80° C.
TNF-α is measured with a commercially available ELISA kit (R&D, RTA00). Treatment with Example 100 produced a dose response inhibition of TNF-α synthesis, as measured in the synovial lavage fluid with ED50=30 mg/kg.

[2] = test system: TNF-α production in mouse peritoneal macrophages; assay: Inhibition of TNF-α in vitro, LPS/interferon-γ stimulated mouse peritoneal macrophages, Luminex detection; assay type: cell-based; details: Peritoneal macrophage, LPS 50 ng/mL + interferon-γ 10 U/mL, 18 hr, read-out: IC50, suppression of TNF-α in vitro
Method: 1 mL thioglycolate broth (5.0 g yeast extract, 15.0 g casitone or trypticase, 5.0 g dextrose, 2.5 g sodium chloride, 0.75 g L-cystine, 0.5 g sodium thioglycolate, 1.0 mg resazurin, and 0.75 g agar in 1.0 L distilled water) are injected into the peritoneal cavity of Balb/C female mice. At day 4 or 5 post-injection the mice are sacrificed and then injected i.p. with 4 mL RPMI-1640 medium (BioWhittaker) and the peritoneal macrophages are withdrawn by syringe. Mouse peritoneal microphages are counted with a hemocytometer and adjusted to 5×10^5 cells/well in 96-well plates in RPMI-1640 medium with 10% fetal bovine serum. 200 μL/well is plated in 96-well plates and the cells allowed to settle and adhere to the bottom of the well for at least 3 hr. The test compound or standard p38 kinase inhibitor is pre-treated using a series of 8 concentrations for 1 hr at 37° C. (20 μL/well). The cells are treated with a mixture of 50 ng/mL lipopolysaccharide (LPS) and 10 U/mL interferon-γ for 18 hr at 37° C. (20 μL/well). The conditioned media is harvested and assayed for TNF-α production using the Luminex procedure. […] Standards and samples are read on a Luminex machine. These intensity readings are then converted to picogram/milliliter units based on a 12-point standard curve created in duplicate using a four-parameter logistic regression method (Bio-Plex Manager 2.0, Bio-Rad), and the IC50 calculated.

[3] = test system: TNFa-levels in the plasma; assay: Inhibition of TNF in vivo, LPS-challenged mice, plasma TNFa by ELISA; details: p.o., female Balb/c mice, LPS IP 400 ug/kg 1 hr after compound, plasma 1.5 hrs after LPS
Method: Compounds are administered p.o. (30, 10, 3 and 1 mg/kg) to female Balb/c mice (6 mice/dose). 1 hr following compound administration at 4 doses (P.O. at volume of 0.1 mL/mouse; vehicle: 1% NaCMC/0.25% Tween-80 in water); mice are given an IP-injection of LPS at 400 ug/kg. 1.5 hrs after LPS challenging, mice are anesthetized with isoflurane and blood is taken via cardiac puncture. TNFa-levels in the plasma are determined using ELISA kit from R&D Systems and dose response ED50 is determined.

p38 kinase enzyme, sequence (Q16539 whole entry): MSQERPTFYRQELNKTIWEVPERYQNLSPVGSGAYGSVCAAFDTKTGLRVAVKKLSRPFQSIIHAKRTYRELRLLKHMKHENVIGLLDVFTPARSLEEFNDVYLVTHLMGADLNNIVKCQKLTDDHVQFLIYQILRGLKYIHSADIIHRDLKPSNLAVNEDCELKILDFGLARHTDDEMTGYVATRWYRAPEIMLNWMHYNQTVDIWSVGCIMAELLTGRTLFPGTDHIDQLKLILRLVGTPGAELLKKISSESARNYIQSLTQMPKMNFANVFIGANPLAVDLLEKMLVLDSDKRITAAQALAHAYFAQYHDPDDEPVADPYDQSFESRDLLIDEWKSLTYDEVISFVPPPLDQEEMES

Compound	IC50 (p38 kinase enzyme) [nM]	ED50 [1] [mg/kg]	IC50 [2] [nM]	TMED50, suppression of TNF in vivo [3] [mg/kg]
Cn1nc(C(C)(C)C)cc1NC(=O)Nc1cc(F)cc(OC2CCN(C(=O)C(C)(C)C)CC2)c1 [Example 70, 1-(5-tert-Butyl-2-methyl-2H-pyrazol-3-yl)-3-{3-[1-(2,2-dimethyl-propionyl)-piperidin-4-yloxy]-5-fluoro-phenyl}-urea]	19			
Cn1nc(C(C)(C)C)cc1NC(=O)Nc1ccc(CN2CCN(C(=O)c3c(F)cccc3F)CC2)cc1 [Example 100]	10	30	11	2.4
Cc1ccc(-n2nc(C(C)(C)C)cc2NC(=O)Nc2ccc(N3CCN(C(=O)C(C)(C)C)CC3)cc2)cc1 [Example 136]	91			
